Data from US9802927B2, “Oxadiazine compounds and methods of use thereof” (Denali Therapeutics, Inc., priority 2015, dated 2017).
pEC50: −log10 of the molar value.

What follows are compounds tested on Aβ42 (assay: In vitro cell screening assay in H4 cells expressing human APP751: Aβ42 by sandwich ELISA). Conditions: Homo sapiens, compounds 0.003-10 μM, incubated overnight (16-18 h), sandwich ELISA of supernatant.
Format: cell-based
Outline: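 H4 neuroglioma cells stably expressing wild-type human APP751, switched to Pro293 medium and treated with compounds (0.003-10 μM, 0.33% DMSO) for 16-18 h at 37 °C. Supernatant Aβ42 quantified by sandwich ELISA (C-terminal capture, 4G8-HRP detection, A450); EC50 by sigmoidal fit normalized to DMSO and DAPT controls.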

| SMILES | pEC50 |
| --- | --- |
| COc1nc(C2=NOCC(c3ccc(S(C)(=O)=O)cc3)N2)ccc1-n1cnc(C)c1 (single isomer, unassigned; (-)) [Example 217A, (−)-3-(6-methoxy-5-(4-methyl-1H-imidazol-1-yl)pyridin-2-yl)-5-(4-(methylsulfonyl)phenyl)-5,6-dihydro-4H-1,2,4-oxadiazine] | < 5.52 |
| COc1nc(C2=NOCC(c3cc4cccc(C)c4o3)N2C)ccc1-n1cnc(C)c1 (single isomer, unassigned; (+)) [Example 23, (+)-3-(6-Methoxy-5-(4-methyl-1H-imidazol-1-yl)pyridin-2-yl)-4-methyl-5-(7-methylbenzofuran-2-yl)-5,6-dihydro-4H-1,2,4-oxadiazine] | 7.21 |
| COc1nc(C2=NOC[C@H](c3cc4c(C)cccc4o3)N2)ccc1-n1cnc(C)c1 [Example 19, (R)-3-(6-Methoxy-5-(4-methyl-1H-imidazol-1-yl)pyridin-2-yl)-5-(4-methylbenzofuran-2-yl)-5,6-dihydro-4H-1,2,4-oxadiazine] | 7.94 |

Same assay, conditions: compounds 0.003-10 μM, incubated overnight (16-18 h), sandwich ELISA of supernatant

| SMILES | pEC50 |
| --- | --- |
| COc1nc(C2=NOCC(c3noc4ccccc34)N2)ccc1-n1cnc(C)c1 (single isomer, unassigned) [Example 174A, 3-(3-(6-methoxy-5-(4-methyl-1H-imidazol-1-yl)pyridin-2-yl)-5,6-dihydro-4H-1,2,4-oxadiazin-5-yl) benzo[d]isoxazole] | < 5.52 |
| COc1nc(C2=NOCC(c3ccc(C#N)cc3)N2)ccc1-n1cnc(C)c1 (single isomer, unassigned; (-)) [Example 151A, (−)-4-(3-(6-methoxy-5-(4-methyl-1H-imidazol-1-yl)pyridin-2-yl)-5,6-dihydro-4H-1,2,4-oxadiazin-5-yl) benzonitrile] | < 5.52 |
| COc1nc(C2=NOCC(c3nn(C)c4ccc(Cl)cc34)N2)ccc1-n1cnc(C)c1 (single isomer, unassigned; (-)) [Example 232A, (−)-5-(5-chloro-1-methyl-1H-indazol-3-yl)-3-(6-methoxy-5-(4-methyl-1H-imidazol-1-yl)pyridin-2-yl)-5,6-dihydro-4H-1,2,4-oxadiazine] | 6.56 |
| COc1nc(C2=NOCC(c3cn(C)c4cc(Cl)cc(OC)c34)N2)ccc1-n1cnc(C)c1 (single isomer, unassigned; (-)) [Example 254A, (−)-5-(6-chloro-4-methoxy-1-methyl-1H-indol-3-yl)-3-(6-methoxy-5-(4-methyl-1H-imidazol-1-yl)pyridin-2-yl)-5,6-dihydro-4H-1,2,4-oxadiazine] | 6.83 |
| COc1nc(C2=NOCC(c3cccc(OC(F)(F)F)c3)N2)ccc1-n1cnc(C)c1 (single isomer, unassigned; (-)) [Example 242A, (−)-3-(6-methoxy-5-(4-methyl-1H-imidazol-1-yl)pyridin-2-yl)-5-(3-(trifluoromethoxy)phenyl)-5,6-dihydro-4H-1,2,4-oxadiazine] | 6.15 |
| COc1nc(C2=NOCC(c3cn(C)c4cccc(OC)c34)N2)ccc1-n1cnc(C)c1 (single isomer, unassigned; (-)) [Example 252A, (−)-5-(4-methoxy-1-methyl-1H-indol-3-yl)-3-(6-methoxy-5-(4-methyl-1H-imidazol-1-yl)pyridin-2-yl)-5,6-dihydro-4H-1,2,4-oxadiazine] | 6.80 |
| COc1nc(C2=NOCC(c3cc4ccccc4o3)N2)ccc1-n1cnc(C)c1 (single isomer, unassigned; (+)) [Example 186B, (+)-5-(benzofuran-2-yl)-3-(6-methoxy-5-(4-methyl-1H-imidazol-1-yl)pyridin-2-yl)-5,6-dihydro-4H-1,2,4-oxadiazine] | 7.42 |
| COc1nc(C2=NOCC(c3cc4cccc(F)c4o3)N2)ccc1-n1cnc(C)c1 (single isomer, unassigned; (+)) [Example 89B, (+)-5-(7-fluorobenzofuran-2-yl)-3-(6-methoxy-5-(4-methyl-1H-imidazol-1-yl)pyridin-2-yl)-5,6-dihydro-4H-1,2,4-oxadiazine] | 7.35 |
| COc1nc(C2=NOCC(c3cn(C4CC4)c4cc(F)ccc34)N2)ccc1-n1cnc(C)c1 (single isomer, unassigned; (+)) [Example 228B, (+)-5-(1-cyclopropyl-6-fluoro-1H-indol-3-yl)-3-(6-methoxy-5-(4-methyl-1H-imidazol-1-yl)pyridin-2-yl)-5,6-dihydro-4H-1,2,4-oxadiazine] | 8.08 |
| COc1nc(C2=NOCC(c3cn(C)c4cccc(F)c34)N2)ccc1-n1cnc(C)c1 (single isomer, unassigned; (-)) [Example 191B, (−)-5-(4-fluoro-1-methyl-1H-indol-3-yl)-3-(6-methoxy-5-(4-methyl-1H-imidazol-1-yl)pyridin-2-yl)-5,6-dihydro-4H-1,2,4-oxadiazine] | 7.08 |
| COc1nc(C2=NOCC(C(C)(C)C)N2)ccc1-n1cnc(C)c1 (single isomer, unassigned; (+)) [Example 147B, (+)-5-(tert-butyl)-3-(6-methoxy-5-(4-methyl-1H-imidazol-1-yl)pyridin-2-yl)-5,6-dihydro-4H-1,2,4-oxadiazine] | 5.76 |
| COc1nc(C2=NOCC(C3CC3)N2)ccc1-n1cnc(C)c1 (single isomer, unassigned) [Example 134A, 5-cyclopropyl-3-(6-methoxy-5-(4-methyl-1H-imidazol-1-yl)pyridin-2-yl)-5,6-dihydro-4H-1,2,4-oxadiazine] | < 5.52 |
| COc1nc(C2=NOCC(c3ccc(Cl)c(F)c3)N2)ccc1-n1cnc(C)c1 (single isomer, unassigned; (+)) [Example 106B, (+)-5-(4-chloro-3-fluorophenyl)-3-(6-methoxy-5-(4-methyl-1H-imidazol-1-yl)pyridin-2-yl)-5,6-dihydro-4H-1,2,4-oxadiazine] | 7.64 |
| COc1cccc(C2CON=C(c3ccc(-n4cnc(C)c4)c(OC)n3)N2)c1 (single isomer, unassigned; (-)) [Example 145A, (−)-3-(6-methoxy-5-(4-methyl-1H-imidazol-1-yl)pyridin-2-yl)-5-(3-methoxyphenyl)-5,6-dihydro-4H-1,2,4-oxadiazine] | 5.57 |
| COc1nc(C2=NOCC(c3cc4c(Cl)cccc4o3)N2)ccc1-n1cnc(C)c1 (single isomer, unassigned; (-)) [Example 96A, (−)-5-(4-chlorobenzofuran-2-yl)-3-(6-methoxy-5-(4-methyl-1H-imidazol-1-yl)pyridin-2-yl)-5,6-dihydro-4H-1,2,4-oxadiazine] | 6.00 |
| COc1nc(C2=NOCC(c3ccc(OC(F)F)cc3)N2)ccc1-n1cnc(C)c1 (single isomer, unassigned; (+)) [Example 93B, (+)-5-(4-(difluoromethoxy)phenyl)-3-(6-methoxy-5-(4-methyl-1H-imidazol-1-yl)pyridin-2-yl)-5,6-dihydro-4H-1,2,4-oxadiazine] | 7.14 |
| COc1nc(C2=NOCC(C3Cc4ccccc4C3)N2)ccc1-n1cnc(C)c1 (single isomer, unassigned; (+)) [Example 246B, (+)-5-(2,3-dihydro-1H-inden-2-yl)-3-(6-methoxy-5-(4-methyl-1H-imidazol-1-yl)pyridin-2-yl)-5,6-dihydro-4H-1,2,4-oxadiazine] | 7.59 |
| COc1cc(C2=NOCC(c3nc4cccc(C)c4o3)N2C)ccc1-n1cnc(C)c1 (single isomer, unassigned; (-)) [Example 212B, (−)-2-(3-(3-methoxy-4-(4-methyl-1H-imidazol-1-yl)phenyl)-4-methyl-5,6-dihydro-4H-1,2,4-oxadiazin-5-yl)-7-methylbenzo[d]oxazole] | < 5.52 |
| COc1nc(C2=NOCC(c3ccc(F)c(C(F)(F)F)c3)N2)ccc1-n1cnc(C)c1 (single isomer, unassigned) [Example 44A, 5-(4-fluoro-3-(trifluoromethyl)phenyl)-3-(6-methoxy-5-(4-methyl-1H-imidazol-1-yl)pyridin-2-yl)-5,6-dihydro-4H-1,2,4-oxadiazine] | < 5.52 |
| COc1ccc(C2CON=C(c3ccc(-n4cnc(C)c4)c(OC)n3)N2)cc1 (single isomer, unassigned; (-)) [Example 54A, (−)-3-(6-methoxy-5-(4-methyl-1H-imidazol-1-yl)pyridin-2-yl)-5-(4-methoxyphenyl)-5,6-dihydro-4H-1,2,4-oxadiazine] | < 5.52 |
| COc1nc(C2=NOCC(c3cc4cc(Cl)ccc4o3)N2)ccc1-n1cnc(C)c1 (single isomer, unassigned; (+)) [Example 57B, (+)-5-(5-chlorobenzofuran-2-yl)-3-(6-methoxy-5-(4-methyl-1H-imidazol-1-yl)pyridin-2-yl)-5,6-dihydro-4H-1,2,4-oxadiazine] | 7.75 |
| COc1nc(C2=NOCC(c3cn(C)c4cc(C(F)(F)F)ccc34)N2)ccc1-n1cnc(C)c1 (single isomer, unassigned; (-)) [Example 197B, (−)-3-(6-methoxy-5-(4-methyl-1H-imidazol-1-yl)pyridin-2-yl)-5-(1-methyl-6-(trifluoromethyl)-1H-indol-3-yl)-5,6-dihydro-4H-1,2,4-oxadiazine] | 7.04 |
| COc1nc(C2=NOCC(c3ccc(C4CC4)cc3)N2)ccc1-n1cnc(C)c1 (single isomer, unassigned; (-)) [Example 116A, (−)-5-(4-cyclopropylphenyl)-3-(6-methoxy-5-(4-methyl-1H-imidazol-1-yl)pyridin-2-yl)-5,6-dihydro-4H-1,2,4-oxadiazine] | 6.12 |
| COc1ccc2c(c1)c(C1CON=C(c3ccc(-n4cnc(C)c4)c(OC)n3)N1)cn2C (single isomer, unassigned; (+)) [Example 250B, (+)-5-(5-methoxy-1-methyl-1H-indol-3-yl)-3-(6-methoxy-5-(4-methyl-1H-imidazol-1-yl)pyridin-2-yl)-5,6-dihydro-4H-1,2,4-oxadiazine] | 7.80 |
| COc1nc(C2=NOCC(c3cc4c(F)cccc4o3)N2)ccc1-n1cnc(C)c1 (single isomer, unassigned; (+)) [Example 99A, (+)-5-(4-fluorobenzofuran-2-yl)-3-(6-methoxy-5-(4-methyl-1H-imidazol-1-yl)pyridin-2-yl)-5,6-dihydro-4H-1,2,4-oxadiazine] | 6.07 |
